US7510703B2, “UV-photoprotecting/sunscreen compositions comprising silane/siloxane derivatives of merocyanine sulfones” (L'Oreal, priority 2004, dated 2009)

Experiment: UV absorption spectrum (λmax, E1%) of the UV filter compounds
Type: physicochemical
Conditions: for E1%: at main λmax; for E1% (shoulder): at shoulder; for λmax: main maximum

SMILES	E1% (UV (Ethanol))	E1% (shoulder) (UV (Ethanol))	λmax (UV (Ethanol)) [nm]	λmax (shoulder) (UV (Ethanol)) [nm]	E1% (UV (CH2Cl2))	E1% (shoulder) (UV (CH2Cl2))	λmax (UV (CH2Cl2)) [nm]	λmax (shoulder) (UV (CH2Cl2)) [nm]
COC(=O)/C(=C\C=C\N(C)CCC[Si](C)(O[Si](C)(C)C)O[Si](C)(C)C)S(=O)(=O)c1ccc(C)cc1 [Example 1]	1154	773	372	356	–	–	–	–
C#CCN(C)C=CC=C(C(=O)OCC)S(=O)(=O)c1ccccc1 [ethyl-5-[methyl(prop-2-ynyl)amino]-2-(phenylsulfonyl)penta-2,4-dienoate]	–	–	–	–	1367	1298	366	358
C=CCN(C)C=CC=C(C(=O)OC)S(=O)(=O)c1ccc(C)cc1 [methyl-5-[allyl(methyl)amino]-2-[(4-methylphenyl)sulfonyl]penta-2,4-dienoate]	–	–	–	–	1346	1031	370	356
